{
  "source": "patent US20170118987A1",
  "about": "“SYNERGISTIC HERBICIDAL COMPOSITION AND USE THEREOF” (ROTAM AGROCHEM INTERNATIONAL CO., LTD, priority 2015, published 2017)",
  "key": {"[1]": {"test": "Stability of iodosulfuron-methyl-sodium solid forms", "format": "physicochemical", "conditions": "hydrolysis when dissolved or dispersed in water and during storage exposed to moisture"}, "[2]": {"conditions": "compared with the amorphous state; from U.S. Ser. No. 14/926,133; cited from earlier work"}},
  "data": [
    {"smiles": "COC(=O)c1ccc(I)cc1S(=O)(=O)NC(=O)Nc1nc(C)nc(OC)n1.[Na]", "note": "[sodium salt of methyl 4-iodo-2-[[[[(4-methoxy-6-methyl-1,3,5-triazin-2-yl)amino]carbonyl]amino]sulfonyl]benzoate]", "values": [
      {"measurement": "stability", "setting": "[1]", "result": "highly unstable"},
      {"measurement": "stability in formulations", "setting": "[2]", "result": "improved stability"}
    ]}
  ]
}
